Test results from patent US20090123501A1, “INHIBITION OF THE SH2-DOMAIN CONTAINING PROTEIN TYR-PHOSPHATASE, SHP-1, TO ENHANCE VACCINES” (Baylor College of Medicine, priority 2007, published 2009).

Tests used:
[1] = tested on: Akt; assay: LPS stimulated Akt signaling in BMDCs, western blot; assay type: cell-based, C57BL/6 mice; conditions: CD11c positive BMDCs
Procedure: DC survival has been linked with activation of Akt/protein kinase B (PKB) family proteins, major effectors of phosphatidylinositol 3-kinase (PI3K) family members. LPS stimulated Akt signaling BMDCs was examined to determine if SHP-1 mediated survival might be working through this mechanism. MACS sorted for CD11c positive BMDCs were infected with either Ad5-SHP-1-shRNA or Ad5-scrambled-shRNA or left untreated. Cells (10^7) per group were treated with 1 μg/mL LPS for the times indicated or left untreated. Lysates were analyzed by western blot for phosphorylated Akt. […] This observation provides a mechanism for the increased survival seen when SHP-1 signaling was inhibited, in certain embodiments (FIG. 8). LPS stimulation also appears to enhance the total level of SHP-1 protein in DCs as shown by the SHP-1 blot for cells treated with Ad5-scrambled-shRNA.

[2] = tested on: BMDCs; assay: In vitro transwell DC migration to CCL21; assay type: cell-based, C57BL/6 mice; conditions: BMDCs transduced 48 hours, 100 ng/mL CCL21, 3 hours transwell
Procedure: (§1) Primary bone marrow-derived dendritic cells (BMDCs) were prepared from wild type mice in the following manner: Bone marrow cells were flushed from the femurs and tibias of C57BL/6 mice and cultured for 6 days in RPMI media supplemented with 10% FBS, 10 ng/mL IL-4 and 10 ng/mL GMCSF along with antibiotics. On day 6, dendritic cells (DCs) were either purified by magnetic bead assisted cell sorting (MACS; Miltenyi Biotec, Auburn, Calif.) prior to adenoviral transduction, or used as unpurified bulk DCs that were then transduced with adenovirus.
For DCs to initiate an immune response, they must capture antigen in the periphery and then migrate to the lymph nodes where they stimulate antigen specific T cells. To determine if SHP-1 signaling could affected the ability of DCs to migrate to draining lymph nodes, trafficking studies were performed both in vitro and in vivo. For the in vitro DC migration assays, unpurified bulk BMDCs were transduced with either Ad5-SHP1-shRNA or Ad5-scrambled-shRNA for 48 hours or left untreated. Half of the untreated cells were treated with 1 μg/mL LPS for 24 hours. Cells were collected and washed in serum-free media (SFM) and resuspended at 5×10^6 cells/mL. […] BMDCs migrating into the lower chamber were counted using a hematocytometer.

[3] = tested on: BMDCs; assay: DC survival by annexin V and propidium iodide flow cytometry; assay type: cell-based, C57BL/6 mice; conditions: CD11c purified BMDCs
Procedure: as §1
BMDCs were prepared as described above and purified by CD11c (a marker for DC) MACS. Purified DCs were transduced with either Ad5-SHP1-shRNA or Ad5-scrambled-shRNA or left untreated and the virus was washed away following a two hour exposure. Cell survival was determined at 24 hours, 48 hours and 72 hours after infection by annexin V and propidium iodide (PI) staining and analyzed by flow cytometry. Annexin V binds to phosphatidylserine and is an early marker of apoptosis. PI is a DNA intercalating dye that can only enter cells when their membrane is integrity is disrupted and is a marker of cells late in the apoptotic process. Viral infection of DCs causes cells to undergo apoptosis where approximately 50% were dead or dying within the first 24 hours and 85% were dead or dying by 72 hours post-infection (FIG. 8 Ad5-scrambled-shRNA). […]

[4] = tested on: SHP-1 mRNA; assay: SHP-1 mRNA knock-down by quantitative RT-PCR in RAW cells; assay type: cell-based, murine; conditions: relative to no virus treatment
Text: Two mouse SHP-1 specific small hairpin RNAs (shRNA) sequences, 272 and 1149, (referred to by their nucleotide position from the start site of the coding sequence in Genbank mRNA Accession #BC012660) were designed and cloned into the adenoviral vector pAd-BLOCK-iT-DEST RNAi (Invitrogen, Carlsbad, Calif.) which provides U6 polymerase […] promoter-driven expression of the shRNA. The exemplary shRNA sequences Ad5-shRNA#1149 (SEQ ID NO:11) and Ad5-shRNA#272 (SEQ ID NO:12) are provided as follows: […] (SEQ ID NO:11) and […] (SEQ ID NO:12), wherein sequence underlined in the shRNA is the exemplary SHP-1 specific palandromic 21-mer. Adenovirus carrying the appropriate sequence were produced and expanded in HEK-293 cells (ATCC Manassas, Va.). These viruses were then plaque purified and the ability to knock-down SHP-1 mRNA was tested in RAW cells, a murine macrophage-like cell line, by quantitative RT-PCR and are shown as a percent of the no virus treatment (FIG. 2A and FIG. 2B). Adenovirus expressing green fluorescent protein was used as a negative control for viral treatment (FIG. 2C). […] The ability of this shRNA to knock down SHP-1 protein was examined by western blot (FIG. 2D). A large scale, high titer, preparation of Ad-shRNA#1149 was produced by the Viral Vector Core Laboratory at Baylor College of Medicine and used in subsequent studies.

[5] = tested on: BMDCs; assay: In vivo DC migration out of the footpad, luciferase IVIS imaging; parameters: species or system albino C57BL/6 mice; conditions: 2×10^6 transduced BMDCs injected into footpad
Procedure: To determine if SHP-1 inhibition enhanced DC migration in vivo, BMDCs were prepared as described above but were transduced with an adenovirus expressing a clickbeetle red-shifted luciferase in addition to either Ad5-SHP-1-shRNA or Ad5-scrambled-shRNA. Transduced cells (2×10^6) were injected into the contralateral footpads of tyrosinase-deficient albino C57BL/6 mice (B6(Cg)-Tyr^c-2J/J, Jackson Laboratory). At the specified intervals mice were injected i.p. with 100 μl of 10 mg/mL luciferin and imaged in vivo using IVIS® (Caliper Life Sciences, Hopkinton, Mass.).

What does the source list for “CACCGGAGCATGACACAGCAGAATACGAATATTCTGCTGTGTCATGCTCC (chemistry not given here) [Ad5-SHP-1-shRNA]”?
steady state expression of total Akt protein [1]: enhanced the steady state expression of total Akt protein; LPS mediated Akt phosphorylation ([1]; 1 μg/mL LPS): enhanced LPS mediated Akt phosphorylation; migration index (migration to CCL21 relative to migration without CCL21) [2]: not significantly different from that of untreated cells; cells dead or dying ([3]; by 72 hours post-infection): 55%; cells dead or dying ([3]; within the first 24 hours post-infection): 35%; reduction in SHP-1 mRNA [4]: > 5 fold reduction; DCs in the footpad at 24 hours post-injection [5]: undetectable in the footpad by 24 hours post injection; time by which DCs are seen to migrate out of the footpad ([5]; post-injection): ≤ 2 h
